Values of other authors in patent US9928346B1, “Test panel to measure blood neurotoxin levels in prematernal women and for the general public in relation to mental disorders of the aging” (priority 2016, dated 2018).
Where two headings read alike, the source gives them in different places.

What was measured:
[1] = for Minimum Risk Level: blood levels
[2] = for an average man
[3] = orally consumed, toxicology assessment

| SMILES | Minimum Risk Level [1] [microgram per liter] | tentative dietary suggestions [2] | MRL for blood content ([1]; recommended by Mayo Clinic and Micro Trace Minerals diagnostic centers) [microgram/liter] | Minimum Risk Level [3] [mg Al/kg body weight/day] | absorption by the intestines (digested aluminum) [%] | absorbed in the blood (intravenous injection from a vaccine) [%] |
| --- | --- | --- | --- | --- | --- | --- |
| [AsH3] [Arsenic, arsenic] | <10 |  |  |  |  |  |
| [Mn+2] [Manganese, manganese] | <18 | about 10 mg/day |  |  |  |  |
| [Pb] [Lead, lead] | <50 |  |  |  |  |  |
| [Al] [Aluminum, aluminum] | <6 |  | < 6 | 1.0 | 1 | 100 |
